Data as given in patent US4409228A, “Andrexiant aminopiperidines intermediates thereto and drugs containing same” (Sanofi, priority 1979, dated 1983).
Where a name gives a salt, the structure may show the parent alone. Read-outs that look alike come from different tables or passages of the source.

Assays:
Assay type in all cases: in vivo
[1] = Anorexiant activity, food consumption method in the rat, intraperitoneal; conditions: female rats, i.p., food consumed in first hour, vs controls
Procedure: (§1) The anorexiant activity was assessed by the food consumption method in the rat. Female rats weighing 200 g were used, trained for 10 days to eat during a period of 4 hours and selected on the eighth day. After the tenth day, the randomized animals were divided into a "control group", treated solely with the carrier, and into several "treated groups". The treatment was effected by the intraperitoneal route 30 minutes before the presentation of food and the quantity of food consumed in the course of the first hour was then measured. The data in Table I indicate the percentage of inhibition of the food consumption of the animals treated with the compounds according to the present invention with respect to the controls.

male mice = test: Acute toxicity, zone of mortality, mice, intraperitoneal; conditions: i.p., 48 h observation, doses with lowest (at least 1 death) and highest mortality
Procedure: With respect to their degree of activity, the 4-amino-1-(2-pyridyl)piperidines of the present invention are sparingly toxic and present a good therapeutic index. In Table I hereinbelow, the acute toxicity is expressed in the form of "zone of mortality". 6 batches of male mice weighing about 20 g were used, in which were injected the compounds of the present invention, dissolved or suspended in carboxymethylcellulose, by the intraperitoneal route, at at least four doses for each batch of animals. […] The "mortality zone" is represented by the doses at which the lowest mortality (at least 1 death) and the highest are observed.

[2] = Acute toxicity, LD50 in the rat by the oral route; conditions: in vivo; for selectivity ratio: ratio acute toxicity LD50 / anorexiant ED50 (therapeutic index), read-out: A/B
From the text: (§2) the acute toxicity, expressed at LD50 in the rat by the oral route (data A);

cerebral serotonin = test: Cerebral levels of serotonin after intraperitoneal administration in the rat; conditions: for Cerebral levels of serotonin % with respect to controls: 60 minutes before sacrifice
Procedure: Table III below summarises the cerebral levels of serotonin after intraperitoneal administration in the rat of a compound according to the present invention, 4-amino-1-(6-chloro-2-pyridyl) piperidine in monohydrochloride form (CM 57227, product of Example 1). Fenfluramine was used as reference product.
The animals were treated 60 minutes before sacrifice.

[3] = Locomotor activity in the rat, oral (inhibition of spontaneous motility, photoelectric cell); conditions: for ED50 at 0.5 h / selectivity ratio: in vivo; for ED50 at 0.5 h: female rats, oral dose inhibiting spontaneous motility by 50%, pulses during 10 minutes, 30 minutes after treatment, read-out: C locom. act. inhibition ID50; for selectivity ratio: ratio locomotor ID50 / anorexiant ED50 (therapeutic index), read-out: C/B; for selectivity ratio / inhibition of locomotor activity (in words): oral; for inhibition of locomotor activity (in words): relative to anorexiant ED50
Procedure: The products were also assessed as a function of their action on the locomotor activity in the rat. To this end, female rats weighing about 200 g were used, to which the compounds were administered by the oral route. After 30 minutes, the treated animals were placed in a cage (80×80 cm) provided with a photoelectric cell for measuring the spontaneous movements, and the number of pulses transmitted to the cell for 10 minutes was recorded. The inhibition of the locomotor activity of each substance (6 to 10 animals per dose) was expressed as a percentage with respect to the controls.
the action on the locomotor activity, expressed as oral dose inhibiting by 50% the spontaneous motility, namely the number of pulses transmitted to the photoelectric cell during the 10 minutes (ID50, data C);

[4] = Anorexiant activity, food consumption method in the rat, oral (ED50); conditions: for ED50: read-out: B anorexiant activity ED50; for anorexiant activity (in words): oral
Procedure: as §1
The anorexiant activity by the oral route of a product according to the present invention, 4-amino-1-(6-chloro-2-pyridyl)piperidine in the form of mono hydrochloride (CM 57227, compound of Example 1), was tested in accordance with the food consumption method described hereinabove; as well known anorexiant product, fenfluramine, as well as 1-(6-chloro-2-pyridyl)piperazine in the form of monohydrochloride, described in U.S. Pat. No. 4,078,063, and 1-(6-chloro-2-pyrazinyl) piperazine in monohydrochloride form, described in British Pat. No. 1,492,528, were used as reference products.
the anorexiant activity, expressed as oral dose inhibiting by 50% the food consumption (ED50, data B);

rat = test: Acute toxicity, LD50 in the rat by the oral route
From the text: as §2

COc1cccc(N2CCC(N)CC2)n1 [CM 57366, 4-amino-1-(6-methoxy-2-pyridyl) piperidine]
Food consumption % inhibition ([1]; 30 mg/kg): 67.0%
Mortality zone (male mice): 150 to 200 mg/kg

NC1CCN(c2cccc(Cl)n2)CC1 [CM 57227, 4-amino-1-(6-chloro-2-pyridyl) piperidine]
LD50 [2]: 190 mg/kg
selectivity ratio [2]: 24.3
Food consumption % inhibition ([1]; 10 mg/kg): 70.8%
Cerebral levels of serotonin % with respect to controls (cerebral serotonin; 5 mg/kg i.p.): 105%
Cerebral levels of serotonin % with respect to controls (cerebral serotonin; 10 mg/kg i.p.): 120%
Mortality zone (male mice): 100 to 150 mg/kg
ED50 at 0.5 h [3]: 60 mg/kg
selectivity ratio [3]: 7.7
ED50 ([4]; rat, oral dose inhibiting food consumption by 50%): 7.8 mg/kg

CCNC(C)Cc1cccc(C(F)(F)F)c1 (centres unmarked) [fenfluramine]
A Acute toxicity LD50 (rat): 100.9 mg/kg
therapeutic index A/B, comparison (in words) (rat): almost equal to that of the 4-amino-1-(6-chloro-2-pyridyl)piperidine of the present invention
selectivity ratio [2]: 25.2
Cerebral levels of serotonin % with respect to controls (cerebral serotonin; 3.75 mg/kg i.p., * significant: p < 0.01): 69%
Cerebral levels of serotonin % with respect to controls (cerebral serotonin; 7.5 mg/kg i.p., * significant: p < 0.01): 51%
Cerebral levels of serotonin % with respect to controls (cerebral serotonin; 15 mg/kg i.p., * significant: p < 0.01): 42%
cerebral levels of serotonin (in words) (cerebral serotonin; i.p., anorexiant or equivalent doses): causes a significant reduction in cerebral serotonin
ED50 at 0.5 h [3]: 12 mg/kg
selectivity ratio [3]: 3
inhibition of locomotor activity (in words) [3]: much greater inhibiting action on the locomotor activity
ED50 ([4]; Rattus norvegicus, po): 4 mg/kg

NC1CCN(c2cccc(OCC(F)(F)F)n2)CC1 [CM 57385, 4-amino-1-[6-(2,2,2-trifluoro)ethoxy-2-pyridyl] piperidine]
Food consumption % inhibition ([1]; 30 mg/kg): 78.2%
Mortality zone (male mice): 150 to 250 mg/kg

Clc1cccc(N2CCNCC2)n1 [1-(6-chloro-2-pyridyl)piperazine HCl, 1-(6-chloro-2-pyridyl)piperazine]
LD50 [2]: 174 mg/kg
selectivity ratio [2]: 48.3
ED50 at 0.5 h [3]: 2.1 mg/kg
selectivity ratio [3]: 0.58
inhibition of locomotor activity (in words) [3]: inhibit the locomotor activity at doses even lower than the anorexiant ED50
ED50 ([4]; Rattus norvegicus, po): 3.6 mg/kg
anorexiant activity (in words) ([4]; rat): very active as anorexiants

Clc1cncc(N2CCNCC2)n1 [1-(6-chloro-2-pyrazinyl)piperazine HCl, 1-(6-chloro-2-pyrazinyl) piperazine]
LD50 [2]: 79.6 mg/kg
selectivity ratio [2]: 46.8
ED50 at 0.5 h [3]: 0.6 mg/kg
selectivity ratio [3]: 0.3
inhibition of locomotor activity (in words) [3]: inhibit the locomotor activity at doses even lower than the anorexiant ED50
ED50 ([4]; Rattus norvegicus, po): 1.7 mg/kg
anorexiant activity (in words) ([4]; rat): very active as anorexiants

Cc1cccc(N2CCC(N)CC2)n1 [CM 57371, 4-amino-1-(6-methyl-2-pyridyl)piperidine]
Food consumption % inhibition ([1]; 40 mg/kg): 77.2%
Mortality zone (male mice): 175 to 225 mg/kg

NC1CCN(c2cccc(Sc3ccccc3)n2)CC1 [CM 57369, 4-amino-1-(6-phenylthio-2-pyridyl)piperidine]
Food consumption % inhibition ([1]; 40 mg/kg): 95.2%
Mortality zone (male mice): 150 to 200 mg/kg

NC1CCN(c2cccc(Br)n2)CC1 [CM 57373, 4-amino-1-(6-bromo-2-pyridyl) piperidine]
Food consumption % inhibition ([1]; 20 mg/kg): 89.8%
Mortality zone (male mice): 100 to 175 mg/kg
